In PubChem BioAssay (NCI):
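Compound exposure: 48 hours, 5 concentrations, 96-well plates. Definition used: TGI = concentration required for complete inhibition of growth.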

Columns and labels:
Assay in all cases: NCI-60 cell line screen, 48 h
786-0 renal = tested on: 786-0 renal
A498 renal = tested on: A498 renal
A549 NSCLC = tested on: A549 NSCLC
ACHN renal = tested on: ACHN renal
BT-549 breast = tested on: BT-549 breast
CAKI-1 renal = tested on: CAKI-1 renal
CCRF-CEM leukemia = tested on: CCRF-CEM leukemia
COLO 205 colon = tested on: COLO 205 colon
DU-145 prostate = tested on: DU-145 prostate
EKVX NSCLC = tested on: EKVX NSCLC
HCC-2998 colon = tested on: HCC-2998 colon
HCT-116 colon = tested on: HCT-116 colon
HCT-15 colon = tested on: HCT-15 colon
HOP-62 NSCLC = tested on: HOP-62 NSCLC
HOP-92 NSCLC = tested on: HOP-92 NSCLC
HS 578T breast = tested on: HS 578T breast
HT29 colon = tested on: HT29 colon
IGROV1 ovarian = tested on: IGROV1 ovarian
K-562 leukemia = tested on: K-562 leukemia
KM12 colon = tested on: KM12 colon
LOX IMVI melanoma = tested on: LOX IMVI melanoma
M14 melanoma = tested on: M14 melanoma
MALME-3M melanoma = tested on: MALME-3M melanoma
MCF7 breast = tested on: MCF7 breast
MDA-MB-231 breast = tested on: MDA-MB-231 breast
MDA-MB-435 = tested on: MDA-MB-435
MDA-N = tested on: MDA-N
MOLT-4 leukemia = tested on: MOLT-4 leukemia
NCI-H226 lung = tested on: NCI-H226 lung
NCI-H23 lung = tested on: NCI-H23 lung
NCI-H460 lung = tested on: NCI-H460 lung
NCI-H522 lung = tested on: NCI-H522 lung
NCI/ADR-RES ovarian = tested on: NCI/ADR-RES ovarian
OVCAR-3 ovarian = tested on: OVCAR-3 ovarian
OVCAR-4 ovarian = tested on: OVCAR-4 ovarian
OVCAR-5 ovarian = tested on: OVCAR-5 ovarian
OVCAR-8 ovarian = tested on: OVCAR-8 ovarian
PC-3 prostate = tested on: PC-3 prostate
RPMI-8226 leukemia = tested on: RPMI-8226 leukemia
RXF 393 renal = tested on: RXF 393 renal
SF-268 CNS = tested on: SF-268 CNS
SF-295 CNS = tested on: SF-295 CNS
SF-539 CNS = tested on: SF-539 CNS
SK-MEL-2 melanoma = tested on: SK-MEL-2 melanoma
SK-MEL-28 melanoma = tested on: SK-MEL-28 melanoma
SK-MEL-5 melanoma = tested on: SK-MEL-5 melanoma
SK-OV-3 ovarian = tested on: SK-OV-3 ovarian
SN12C renal = tested on: SN12C renal
SNB-19 CNS = tested on: SNB-19 CNS
SNB-75 CNS = tested on: SNB-75 CNS
SW-620 colon = tested on: SW-620 colon
T-47D breast = tested on: T-47D breast
TK-10 renal = tested on: TK-10 renal
U251 CNS = tested on: U251 CNS
UACC-257 melanoma = tested on: UACC-257 melanoma
UO-31 renal = tested on: UO-31 renal
HL-60(TB) leukemia = tested on: HL-60(TB) leukemia
SR leukemia = tested on: SR leukemia
UACC-62 melanoma = tested on: UACC-62 melanoma

## CC(C)C[C@H](NC(=O)[C@H](Cc1ccccc1)NC(=O)CCc1ccccc1)B(O)O
786-0 renal
  TGI: < 10 nM
A498 renal
  TGI: < 10 nM
A549 NSCLC
  TGI: 91.9 nM
ACHN renal
  TGI: < 10 nM
BT-549 breast
  TGI: < 10 nM
CAKI-1 renal
  TGI: 55.4 nM
CCRF-CEM leukemia
  TGI: > 100000 nM
COLO 205 colon
  TGI: < 10 nM
DU-145 prostate
  TGI: < 10 nM
EKVX NSCLC
  TGI: < 21.6 nM
HCC-2998 colon
  TGI: < 10 nM
HCT-116 colon
  TGI: < 10 nM
HCT-15 colon
  TGI: < 10 nM
HOP-62 NSCLC
  TGI: < 10 nM
HOP-92 NSCLC
  TGI: < 10 nM
HS 578T breast
  TGI: < 10 nM
HT29 colon
  TGI: < 10 nM
IGROV1 ovarian
  TGI: < 10 nM
K-562 leukemia
  TGI: > 100000 nM
KM12 colon
  TGI: 10.1 nM
LOX IMVI melanoma
  TGI: < 10 nM
M14 melanoma
  TGI: < 10 nM
MALME-3M melanoma
  TGI: < 10 nM
MCF7 breast
  TGI: 225 nM
MDA-MB-231 breast
  TGI: < 10 nM
MDA-MB-435
  TGI: < 10 nM
MDA-N
  TGI: < 10 nM
MOLT-4 leukemia
  TGI: 665 nM
NCI-H226 lung
  TGI: < 10 nM
NCI-H23 lung
  TGI: < 10 nM
NCI-H460 lung
  TGI: < 10.4 nM
NCI-H522 lung
  TGI: < 10 nM
NCI/ADR-RES ovarian
  TGI: 1820 nM
OVCAR-3 ovarian
  TGI: < 10 nM
OVCAR-4 ovarian
  TGI: < 10 nM
OVCAR-5 ovarian
  TGI: < 10 nM
OVCAR-8 ovarian
  TGI: < 10 nM
PC-3 prostate
  TGI: < 10 nM
RPMI-8226 leukemia
  TGI: > 100000 nM
RXF 393 renal
  TGI: < 10 nM
SF-268 CNS
  TGI: < 10 nM
SF-295 CNS
  TGI: < 10 nM
SF-539 CNS
  TGI: < 10 nM
SK-MEL-2 melanoma
  TGI: < 10 nM
SK-MEL-28 melanoma
  TGI: < 10 nM
SK-MEL-5 melanoma
  TGI: < 10 nM
SK-OV-3 ovarian
  TGI: 72.7 nM
SN12C renal
  TGI: < 10 nM
SNB-19 CNS
  TGI: 1080 nM
SNB-75 CNS
  TGI: < 10 nM
SW-620 colon
  TGI: < 10.4 nM
T-47D breast
  TGI: < 10 nM
TK-10 renal
  TGI: < 10 nM
U251 CNS
  TGI: < 11.2 nM
UACC-257 melanoma
  TGI: < 10 nM
UO-31 renal
  TGI: < 10 nM

## CS(=O)(=O)OCC1OC(n2ccc(NC(=O)c3ccccc3)nc2=O)CC1OS(C)(=O)=O (stereo not given)
786-0 renal
  TGI: > 100000 nM
A498 renal
  TGI: > 100000 nM
A549 NSCLC
  TGI: > 100000 nM
ACHN renal
  TGI: > 100000 nM
BT-549 breast
  TGI: > 100000 nM
CAKI-1 renal
  TGI: > 100000 nM
CCRF-CEM leukemia
  TGI: > 100000 nM
COLO 205 colon
  TGI: > 100000 nM
DU-145 prostate
  TGI: > 100000 nM
EKVX NSCLC
  TGI: > 100000 nM
HCT-116 colon
  TGI: > 100000 nM
HCT-15 colon
  TGI: > 100000 nM
HL-60(TB) leukemia
  TGI: > 100000 nM
HOP-62 NSCLC
  TGI: > 100000 nM
HS 578T breast
  TGI: > 100000 nM
HT29 colon
  TGI: > 100000 nM
IGROV1 ovarian
  TGI: > 100000 nM
K-562 leukemia
  TGI: > 100000 nM
KM12 colon
  TGI: > 100000 nM
LOX IMVI melanoma
  TGI: > 100000 nM
M14 melanoma
  TGI: > 100000 nM
MCF7 breast
  TGI: > 100000 nM
MDA-MB-231 breast
  TGI: > 100000 nM
MDA-MB-435
  TGI: > 100000 nM
MDA-N
  TGI: > 100000 nM
MOLT-4 leukemia
  TGI: > 100000 nM
NCI-H226 lung
  TGI: > 100000 nM
NCI-H23 lung
  TGI: > 100000 nM
NCI-H460 lung
  TGI: > 100000 nM
NCI-H522 lung
  TGI: > 100000 nM
NCI/ADR-RES ovarian
  TGI: > 100000 nM
OVCAR-3 ovarian
  TGI: > 100000 nM
OVCAR-4 ovarian
  TGI: > 100000 nM
OVCAR-5 ovarian
  TGI: > 100000 nM
OVCAR-8 ovarian
  TGI: > 100000 nM
PC-3 prostate
  TGI: > 100000 nM
RPMI-8226 leukemia
  TGI: > 100000 nM
SF-268 CNS
  TGI: > 100000 nM
SF-295 CNS
  TGI: > 100000 nM
SF-539 CNS
  TGI: > 100000 nM
SK-MEL-2 melanoma
  TGI: > 100000 nM
SK-MEL-28 melanoma
  TGI: > 100000 nM
SK-MEL-5 melanoma
  TGI: > 100000 nM
SK-OV-3 ovarian
  TGI: > 100000 nM
SN12C renal
  TGI: > 100000 nM
SNB-19 CNS
  TGI: > 100000 nM
SNB-75 CNS
  TGI: > 100000 nM
SR leukemia
  TGI: > 100000 nM
SW-620 colon
  TGI: > 100000 nM
T-47D breast
  TGI: > 100000 nM
TK-10 renal
  TGI: > 100000 nM
U251 CNS
  TGI: > 100000 nM
UACC-257 melanoma
  TGI: > 100000 nM
UACC-62 melanoma
  TGI: > 100000 nM
